Source: patent US20260165323A1, “USE OF STROBILURIN TYPE COMPOUNDS FOR COMBATING PHYTOPATHOGENIC FUNGI CONTAINING AN AMINO ACID SUBSTITUTION F129L IN THE MITOCHONDRIAL CYTOCHROME B PROTEIN CONFERRING RESISTANCE TO QO […]” (priority 2022, published 2026)

How the values were obtained:
Type in all cases: in vivo
[1] = system: Phakopsora pachyrhizi containing the amino acid substitution F129L in the mitochondrial cytochrome b protein; assay: Use Example 1: protective control of soybean rust on soybeans (PHAKPA P2); conditions: inoculated 2 days after spraying, % diseased leaf area
Procedure: (§1) The compound was dissolved in a mixture of acetone and/or dimethylsulfoxide and the wetting agent/emulsifier Wettol, which is based on ethoxylated alkylphenoles, in a ratio (volume) solvent-emulsifier of 99 to 1 to give a total volume of 5 ml. Subsequently, water was added to total volume of 100 ml. This stock solution was then diluted with the described solvent-emulsifier-water mixture to the final concentration given in the tables below.
Use Example 1. Protective Control of Soybean Rust on Soybeans Caused by Phakopsora pachyrhizi (PHAKPA P2)
(§2) Leaves of potted soybean seedlings were sprayed to run-off with the previously described spray solution, containing the concentration of active ingredient or their mixture as described below. The plants were allowed to air-dry. The trial plants were cultivated for 2 days in a greenhouse chamber at 23-27° C. and a relative humidity between 60 and 80%. Then the plants were inoculated with spores of Phakopsora pachyrhizi. The strain used contains the amino acid substitution F129L in the mitochondrial cytochrome b protein conferring resistance to Qo inhibitors. To ensure the success the artificial inoculation, the plants were transferred to a humid chamber with a relative humidity of about 95% and 20 to 24° C. for 24 hr. The trial plants were cultivated for up to 14 days in a greenhouse chamber at 23 to 27° C. and a relative humidity between 60 and 80%. The extent of fungal attack on the leaves was visually assessed as % diseased leaf area, the disease level of untreated controls was usually higher than 85%.

[2] = system: Phakopsora pachyrhizi containing the amino acid substitution F129L in the mitochondrial cytochrome b protein; assay: Use Example 2: protective control of soybean rust on soybeans (PHAKPA P6); conditions: inoculated six days after spraying, % diseased leaf area
Procedure: as §1
Use Example 2. Protective Control of Soybean Rust on Soybeans Caused by Phakopsora Pachyrhizi (PHAKPA P6)
as §2, with “active ingredient as described” for “active ingredient or their mixture as described”, “cultivated for six days in” for “cultivated for 2 days in”, “95% and 23 to 27°” for “95% and 20 to 24°”, “23 to 27° C. for” for “20 to 24° C. for”

Puccinia recondita [3] = assay: Use Example 3: curative control of brown rust on wheat (PUCCRT K4); conditions: % diseased leaf area
Procedure: as §1
Use Example 3. Curative Control of Brown Rust on Wheat Caused by Puccinia recondita (PUCCRT K4)
The first two developed leaves of potted wheat seedling were dusted with spores of Puccinia recondita. To ensure the success the artificial inoculation, the plants were transferred to a humid chamber without light and a relative humidity of 95 to 99% and 20 to 24° C. for 24 h. The next 3 days the plants were cultivated in a greenhouse chamber at 20 to 24° C. and a relative humidity between 65 and 70%. Then the plants were sprayed to run-off with previously described spray solution, containing the concentration of active ingredient or their mixture as described below. The plants were allowed to air-dry. Then the trial plants were cultivated for 5 to 7 days in a greenhouse chamber at 20 to 24° C. and a relative humidity between 65 and 70%. The extent of fungal attack on the leaves was visually assessed as % diseased leaf area, the disease level of untreated controls was usually between 80 and 100%.

Puccinia recondita [4] = assay: Use Example 4: preventative control of brown rust on wheat (PUCCRT P7); conditions: inoculated seven days after spraying, % diseased leaf area
Procedure: as §1
Use Example 4. Preventative Control of Brown Rust on Wheat Caused by Puccinia recondita (PUCCRT P7)
The first two developed leaves of potted wheat seedling were sprayed to run-off with previously described spray solution, containing the concentration of active ingredient or their mixture as described below. Seven days later the plants were dusted with spores of Puccinia recondita. To ensure the success of the artificial inoculation, the plants were transferred to a humid chamber without light and a relative humidity of 95 to 99% and 20 to 24° C. for 24 h. Then the trial plants were cultivated for 9 to 11 days in a greenhouse chamber at 20 to 24° C. and a relative humidity between 65 and 70%. The extent of fungal attack on the leaves was visually assessed as % diseased leaf area, the disease level of untreated controls was usually between 80 and 100%.

Row | SMILES | % PHAKPA (F129L) Disease level P2 at 4 ppm [1] [%] | % PHAKPA (F129L) Disease level P2 at 16 ppm [1] [%] | % PHAKPA (F129L) Disease level P6 at 4 ppm [2] [%] | % PHAKPA (F129L) Disease level P6 at 16 ppm [2] [%] | % PUCCRT Disease level K4 at 4 ppm (Puccinia recondita [3]) [%] | % PUCCRT Disease level K4 at 16 ppm (Puccinia recondita [3]) [%] | % PUCCRT Disease level P7 at 4 ppm (Puccinia recondita [4]) [%] | % PUCCRT Disease level P7 at 16 ppm (Puccinia recondita [4]) [%]
1 | CNC(=O)/C(=N/OC)c1cccc(Cl)c1CO/N=C(\COC)c1ccc(F)cc1 [compound 2, (2E)-2-[3-chloro-2-[[(Z)-[1-(4-fluorophenyl)-2-methoxyethylidene]amino]oxymethyl]phenyl]-2-methoxyimino-N-methyl-acetamide] | 16 | 0 | 0 | 1 | 63 | 4 | 15 | 5
2 | CNC(=O)/C(=N/OC)c1cccc(Cl)c1CO/N=C(\COC)c1cccc(C)c1 [compound 127] | 21 | 0 | 18 | 4 | 58 | 1 | – | –
3 | COC/C(=N\OCc1c(Cl)cccc1/C(=N\OC)C(=O)OC)c1cc(F)cc(F)c1 [compound 82] | 12 | 0 | 57 | 22 | – | – | 57 | 17
4 | CCOC/C(=N\OCc1c(Cl)cccc1/C(=N\OC)C(=O)OC)c1ccc(F)cc1 [compound 24] | – | – | – | – | 83 | 82 | 68 | 48
5 | CCOC/C(=N\OCc1c(Cl)cccc1/C(=N\OC)C(=O)NC)c1ccccc1Cl [compound 51] | – | – | – | – | 72 | 68 | 75 | 53
6 | COC/C(=N\OCc1c(Cl)cccc1/C(=N\OC)C(=O)OC)c1ccc(Cl)c(Cl)c1 [compound 68] | 17 | 2 | 45 | 9 | – | – | 40 | 12
7 | CO/C=C(/C(=O)OC)c1cccc(F)c1CO/N=C(\COC)c1c(F)cc(F)cc1F [compound 125] | – | – | – | – | 68 | 7 | – | –
8 | CCOC/C(=N\OCc1c(Cl)cccc1/C(=N\OC)C(=O)OC)c1cccc(F)c1 [compound 26] | – | – | – | – | 82 | 82 | 62 | 21
